From patent US11021481B2, “Substituted isoindolin-1-ones and 2,3-dihydro-1h-pyrrolo[3,4-c]pyridin-1-ones as HPK1 antagonists” (Nimbus Saturn, Inc., priority 2019, dated 2021) come the findings set out here.

What is called IC50 is the concentration needed to halve the response being measured.

Sequence of HPK1 (Q92918 whole entry): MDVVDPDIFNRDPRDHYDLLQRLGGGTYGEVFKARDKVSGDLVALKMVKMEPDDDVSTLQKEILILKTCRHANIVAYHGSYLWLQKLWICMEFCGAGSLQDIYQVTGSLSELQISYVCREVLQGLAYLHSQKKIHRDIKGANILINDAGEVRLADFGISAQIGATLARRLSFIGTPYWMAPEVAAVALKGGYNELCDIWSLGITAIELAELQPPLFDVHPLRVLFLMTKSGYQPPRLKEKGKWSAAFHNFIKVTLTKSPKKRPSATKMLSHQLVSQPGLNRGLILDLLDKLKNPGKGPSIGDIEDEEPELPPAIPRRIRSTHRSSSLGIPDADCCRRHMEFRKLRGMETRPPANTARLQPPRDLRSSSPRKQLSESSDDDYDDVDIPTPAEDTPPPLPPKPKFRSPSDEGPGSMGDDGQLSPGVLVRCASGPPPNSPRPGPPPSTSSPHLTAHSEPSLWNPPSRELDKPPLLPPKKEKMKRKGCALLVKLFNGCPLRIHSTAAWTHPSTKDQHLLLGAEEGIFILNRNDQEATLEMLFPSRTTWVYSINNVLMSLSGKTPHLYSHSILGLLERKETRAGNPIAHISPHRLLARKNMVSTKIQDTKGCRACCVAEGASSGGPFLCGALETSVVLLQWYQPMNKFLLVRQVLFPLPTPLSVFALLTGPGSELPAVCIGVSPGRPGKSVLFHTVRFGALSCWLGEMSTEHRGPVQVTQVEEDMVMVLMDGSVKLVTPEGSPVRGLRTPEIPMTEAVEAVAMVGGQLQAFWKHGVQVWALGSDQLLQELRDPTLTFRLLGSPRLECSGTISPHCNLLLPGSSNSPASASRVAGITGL

For this assay, the target named is HPK1 (Homo sapiens (Human), UniProt Q92918). In words: HPK1 biochemical enzyme assay (microfluidic mobility shift assay). The note with it: 1.5 nM HPK1, ATP 1 mM final, 30 min preincubation, 60 min at RT, Caliper EZ Reader; read-out: HPK1 1000UMATP caliper IC50. The procedure, abridged:
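Ten-point compound titrations (top 3 μM final) preincubated 30 min with HPK1 and substrate, then reaction started with 1 mM ATP and 1 μM substrate, 5 mM MgCl2. After 60 min at RT, reaction terminated and product measured by microfluidic mobility shift.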
In the case of `CN1CCN(c2ccc(Nc3cnc(-c4c(-c5ccccc5)[nH]c5ccccc45)c4c3C(=O)NC4)nc2)CC1` [I-141, 7-((5-(4-Methylpiperazin-1-yl)pyridin-2-yl)amino)-4-(2-phenyl-1H-indol-3-yl)-2,3-dihydro-1H-pyrrolo[3,4-c]pyridin-1-one], the IC50 is under 100 nM.
For `Cc1ccn2c(-c3ncc(Nc4ccc(N5CCO[C@@H](C(C)(C)O)C5)cn4)c4c3CNC4=O)cnc2c1F` [I-467, 4-(8-fluoro-7-methyl-imidazo[1,2-a]pyridin-3-yl)-7-[[5-[(2R)-2-(1-hydroxy-1-methyl-ethyl)morpholin-4-yl]-2-pyridyl]amino]-2,3-dihydropyrrolo [3,4-c]pyridin-l-one], the IC50 was under 100 nM.
The same measure for `CN(C)Cc1nc(Nc2ccc(-c3cnc4cc(F)ccn34)c3c2C(=O)NC3)ccc1N1CCC[C@H](O)C1` [I-532, 7-[[6-[(dimethylamino)-methyl]-5-[(3S)-3-hydroxy-1-piperipyl]-2-pyridyl]amino]-4-(7-fluoroimidazo [1,2-a]pyridin-3-yl)isoindolin-1-one]: under 100 nM; for `Cc1cc2c(-c3ccc(Nc4ccc(N5CCN(C)CC5)cn4)c4c3CNC4=O)ccnc2[nH]1` [I-38, 7-[[5-(4-methylpiperazin-1-yl)-2-pyridyl]amino]-4-(2-methyl-1H-pyrrolo[2,3-b]pyridin-4-yl)isoindolin-1-one]: under 100 nM; for `Cc1ncc2c(-c3ccc(Nc4ccc(N5CCC(O)CC5)cn4)c4c3CNC4=O)cccn12` [I-180, 7-[[5-(4-hydroxy-1-piperidyl)-2-pyridyl]amino]-4-(3-methyliminidazo [1.5-a]pyridin-8-yl)isoindolin-1-one]: 100 to 1000 nM.
On to `Cn1ccc2c(-c3ncc(Nc4ccc([C@H]5CCOC5)cn4)c4c3CNC4=O)ccnc21` [I-217, (R)-4-(1-methyl-1H-pyrrolo[2,3-b]pyridin-4-yl)-7-((5-(tetrahydro-furan-3-yl)pyridin-2-yl)amino)-2,3-dihydro-1H-pyrrolo[3,4-c]pyridin-1-one], for which the IC50 is under 100 nM.
Consider `CN1CCC[C@H](c2cccc(Nc3cnc(-c4ccnc5c4ccn5C)c4c3C(=O)NC4)n2)C1` [I-419, (S)-4-(1-methyl-1H-pyrrolo[2,3-b]pyridin-4-yl)-7-((6-(1-methylpiperidin-3-yl)pyridin-2-yl)amino)-2.3-dihydro-1H-pyrrolo[3,4-c]pyridin-1-one], for which the IC50 was over 1000 nM.
With `Cc1cc(-c2ccc(Nc3ccc(N4CCNCC4)cn3)c3c2CNC3=O)c2ccn(C)c2n1` [I-103, 4-(1,6-dimethylpyrrolo [2,3-b]pyridin-4-yl)-7-[(5-piperazin-1-yl-2-pyridyl)amino] isoindolin-1-one], the IC50 lay within 100 to 1000 nM.
To `Cn1ccc2c(-c3ncc(Nc4ccc(N5CCC[C@H](C(C)(C)O)C5)cn4)c4c3CNC4=O)cccc21` [I-216, 7-[[5-[(3S)-3-(1-hydroxy-1-methyl-ethyl)-1-piperidyl]-2-pyridyl]-amino]-4-(1-methylindol-4-yl)-2,3-dihydropyrrolo [3,4-c]pyridin-1-one] belongs under 100 nM; to `O=C1NCc2c(-c3cnc4cc(F)ccn34)ccc(Nc3ccc(N4CCOCC45CC5)cn3)c21` [I-335, 7-((5-(7-oxa-4-azaspiro[2.5]octan-4-yl)pyridin-2-yl)amino)-4-(7-fluoroimidazo [1,2-a]pyridin-3-yl)isoindolin-1-one], under 100 nM.
The same measure for `O=C1NCc2c(-c3cnn4c3CCC(C(=O)NC3CC3)C4)ccc(Nc3ccc(N4CCC(O)CC4)cn3)c21` (stereo not drawn) [I-150, N-cyclopropyl-3-[7-[[5-(4-hydroxy-1-piperidyl)-2-pyridyl]amino]-1-oxo-isoindolin-4-yl]-4,5,6,7-tetrahydropyra-zolo[1,5-a]pyridine-6-carboxamide]: 100 to 1000 nM; for `Cc1cccc2c(-c3ccc(Nc4ccc(N5CCC(O)CC5)cn4)c4c3CNC4=O)cnn12` [I-136, 7-[[5-(4-hydroxy-1-piperidyl)-2-pyripyl]amino]-4-(7-methylpyrazolo[1,5-a]pyridin-3-yl)isoindolin-1-one]: under 100 nM.
On to `Cn1ccc2c(-c3ncc(Nc4ccnc(N5CC[C@H]6CNC[C@H]65)n4)c4c3CNC4=O)ccnc21` [I-684, 7-((2-((3aS, 6aS)-hexahydro-pyrrolo[3,4-b]pyrrol-1(2H)-yl)pyrimidin-4-yl)amino)-4-(1-methyl-1H-pyrrolo[2,3-b)pyridin-4-yl)-2,3-dihydro-1H-pyrrolo[3,4-c]pyridin-1-one], for which the IC50 is under 100 nM.
For `O=C1NCc2c(-c3cnc4cnccn34)ccc(Nc3ccc(S(=O)(=O)N4CCC4)cn3)c21` [I-307, 7-((5-(azetidin-1-ylsulfonyl)-pyridin-2-yl)amino)-4-(imidazo[1,2-a]pyrazin-3-yl)isoindolin-1-one], the IC50 was 100 to 1000 nM.
As for `CN1CCN(c2ccc(Nc3ccc(-c4cccc5[nH]ccc45)c4c3C(=O)NC4)nc2)CC1` [I-41, 4-(1H-indol-4-yl)-7-[[5-(4-methylpiperazin-1-yl)-2-pyridyl]amino] isoindolin-1-one], the IC50 is under 100 nM.
Regarding `COC[C@@]1(O)CCCN(c2ccc(Nc3ccc(-c4cnc5cc(F)ccn45)c4c3C(=O)NC4)nc2)C1` [I-394, (R)-4-(7-fluoroimidazo [1,2-a]pyridin-3-yl)-7-((5-(3-hydroxy-3-(methoxymeth-yl)piperidin-1-yl)pyridin-2-yl)amino)isoin-dolin-1-one], the IC50 was under 100 nM.
Take `O=C1NCc2c(-c3cnc4cc(F)ccn34)ccc(Nc3ccc(N4C[C@H]5CC[C@@H](C4)C5O)cn3)c21` (stereo partly drawn) [I-404, 4-(7-fluoroimidazo [1,2-a]pyridin-3-yl)-7-((5-((1R,5S)-8-hydroxy-3-azabicyclo [3,2.1]octan-3-yl)pyridin-2-yl)amino)isoin-dolin-1-one]: the IC50 is under 100 nM.
As for `C[C@@H]1C[C@@H](O)CCN1c1ccc(Nc2ccc(-c3cnc4cnccn34)c3c2C(=O)NC3)nc1` [I-351, 7-((5-((2R,4S)-4-hydroxy-2-methylpiperidin-1-yl)pyridin-2-yl)amino)-4-(imidazo[1,2-a]pyrazin-3-yl)isoindolin-1-one], the IC50 was under 100 nM.
As for `Cc1ccc2c(-c3ccc(Nc4ccc(C5CCOC5)c(CN(C)C)n4)c4c3CNC4=O)cnn2c1` (stereo in doubt) [I-731, (S)-7-((6-((dimethylamino)-methyl)-5-(tetrahydrofuran-3-yl)pyridin-2-yl)amino)-4-(6-methylpyra-zolo[1,5-a]pyridin-3-yl)isoindolin-1-one], the IC50 was under 100 nM.
The same measure for `O=C1NCc2c(-c3cnn4cccnc34)ccc(Nc3ccc(N4CCC(O)CC4)cn3)c21` [I-157, 7-[[5-(4-hydroxy-1-piperidyl)-2-pyridyl]amino]-4-pyrazolo[1,5-a]pyrimidin-3-yl-isoindolin-1-one]: under 100 nM; for `COC1CN(Cc2nc(Nc3ccc(-c4cnc5cc(F)ccn45)c4c3C(=O)NC4)ccc2[C@@H]2CCOC2)C1` [I-549, (S)-4-(7-fluoroimidazo [1,2-a]pyridin-3-yl)-7-((6-((3-methoxyaze-tidin-1-yl)methyl)-5-(tetrahydrofuran-3-yl)pyridin-2-yl)amino)isoin-dolin-1-one]: under 100 nM; for `O=C1NCc2c(-c3cnc4cc(C(F)(F)F)ccn34)ccc(Nc3ccc(N4CCC(O)CC4)cn3)c21` [I-140]: under 100 nM.
To `Cc1cnn2c(-c3ccc(Nc4ccc([C@H]5CCOC5)c(CN(C)C)n4)c4c3CNC4=O)cnc2c1` [I-537, (R)-7-((6-((dimethylamino)-methyl)-5-(tetrahydrofuran-3-yl)pyridin-2-yl)amino)-4-(7-methylimidazo [1,2-b]pyridazin-3-yl)isoindolin-1-one] belongs under 100 nM; to `COC[C@]1(O)CCCN(c2ccc(Nc3ccc(-c4cnc5cc(F)ccn45)c4c3C(=O)NC4)nc2)C1` [I-393, (S)-4-(7-fluoroimidazo [1,2-a]pyridin-3-yl)-7-((5-(3-hydroxy-3-(methoxymeth-yl)piperidin-1-yl)pyridin-2-yl)amino)isoin-dolin-1-one], under 100 nM; to `CC(C)(O)[C@H]1COCCN(c2ccc(Nc3ccc(-c4cnc5cc(F)ccn45)c4c3C(=O)NC4)nc2)C1` [I-626, (R)-4-(7-fluoroimidazo [1,2-a]pyridin-3-yl)-7-((5-(6-(2-hydroxypropan-2-yl)-1,4-oxazepan-4-yl)pyridin-2-yl)amino)isoin-dolin-1-one], under 100 nM.
On to `Cc1ccc2ncc(-c3ccc(Nc4ccc(N5CCNCC5)cn4)c4c3CNC4=O)n2c1` [I-86, 4-(6-methylimidazo [1,2-a]pyridin-3-yl)-7-[(5-piperazin-1-yl-2-pyridyl)amino] isoindolin-1-one], for which the 50% inhibitory concentration (IC50) was under 100 nM.
Take `CN(C)CCOC1(c2ccc(Nc3ccc(-c4cnc5cc(F)ccn45)c4c3C(=O)NC4)nc2)CCOCC1` [I-669, 7-((5-(4-(2-(dimethylami-no)ethoxy)tetra-hydro-2H-pyran-4-yl)pyridin-2-yl)amino)-4-(7-fluoroimidazo [1,2-a]pyridin-3-yl)isoindolin-1-one]: the concentration for half-maximal inhibition (IC50) is under 100 nM.
With `CN1CCN(c2ccc(Nc3ccc(-c4cnc5c(ccn5C)c4)c4c3C(=O)NC4)nc2)CC1` [I-44, 7-[[5-(4-methylpiperazin-1-yl)-2-pyridyl]amino]-4-(1-methylpyrrolo [2,3-b]pyridin-5-yl)isoindolin-1-one], the concentration for half-maximal inhibition (IC50) fell in the range of 100 to 1000 nM.
In the case of `CN1CCN(c2ccc(Nc3cnc(-c4c[nH]c5cc(F)ccc45)c4c3C(=O)NC4)nc2)CC1` [I-53, 4-(6-fluoro-1H-indol-3-yl)-7-[[5-(4-methylpiperazin-1-yl)-2-pyridyl]amino]-2,3-dihydropyrrolo [3,4-c]pyridin-1-one], the half-inhibitory concentration (IC50) was 100 to 1000 nM.
To `CN(C)Cc1nc(Nc2ccc(-c3cnc4cc(F)ccn34)c3c2C(=O)NC3)ccc1N1CCN(C)C(=O)C1` [I-795, 7-((6-((dimethylamino)-methyl)-5-(4-methyl-3-oxopiperazin-1-yl)pyridin-2-yl)amino)-4-(7-fluoroimidazo [1,2-a]pyridin-3-yl)isoindolin-1-one] belongs under 100 nM.
